Test results reported in ChEMBL document CHEMBL3885881, “DrugMatrix”.
Values joined by “and” are separate entries in the source; they are usually repeats but may differ in a detail not shown here. Identical values can stand only once.

Species on record: Rattus norvegicus
Assay: DrugMatrix - Regimen: Daily Repeat
Format: toxicity, organism-based, Sprague-Dawley
Set-up: regimen Daily Repeat, gender Male, age 6-8 weeks
Conditions: in vivo, po, route oral GAVAGE, vehicle .5 % CMC; for ABSOLUTE BASOPHIL / ABSOLUTE LYMPHOCYTE / ABSOLUTE MONOCYTE / ABSOLUTE SEGMENTED NEUTROPHIL / BASOPHIL / EOSINOPHIL / ERYTHROCYTE COUNT / HEMATOCRIT / HEMOGLOBIN / LEUKOCYTE COUNT / LYMPHOCYTE / MEAN CORPUSCULAR HEMOGLOBIN / MEAN CORPUSCULAR HEMOGLOBIN CONCENTRATION / MEAN CORPUSCULAR VOLUME / MONOCYTE / NEUTROPHIL / PLATELET COUNT / ABSOLUTE EOSINOPHIL / NUCLEATED RED BLOOD CELLS: tissue Blood; for ALANINE AMINOTRANSFERASE / ALBUMIN / ALKALINE PHOSPHATASE / ASPARTATE AMINOTRANSFERASE / BLOOD UREA NITROGEN / CARBON DIOXIDE / CHLORIDE / CHOLESTEROL / CREATINE PHOSPHOKINASE / CREATININE / GLUCOSE / LIPASE / PHOSPHORUS / POTASSIUM / SODIUM / TOTAL BILIRUBIN / TOTAL PROTEIN / URIC ACID / LACTATE DEHYDROGENASE: tissue Plasma
[1] = 0 mg/kg, 72 h, dose level Control, time 3 day
[2] = 0 mg/kg, 120 h, dose level Control, time 5 day
[3] = 11 mg/kg, 72 h, dose level Low, time 3 day
[4] = 11 mg/kg, 120 h, dose level Low, time 5 day

COc1ccc2c3c1O[C@H]1C[C@@H](O)C=C[C@@]31CCN(C)C2 [GALANTAMINE]
ABSOLUTE BASOPHIL [1]: 0 CELLS/uL
ABSOLUTE LYMPHOCYTE [1]: 15937.67 CELLS/uL and 12269.67 CELLS/uL
ABSOLUTE MONOCYTE [1]: 138.33 CELLS/uL and 160.33 CELLS/uL
ABSOLUTE SEGMENTED NEUTROPHIL [1]: 1443 CELLS/uL and 970 CELLS/uL
BASOPHIL [1]: 0%
EOSINOPHIL [1]: 0.33% and 0%
ERYTHROCYTE COUNT [1]: 5.45 x10E6/uL and 5.76 x10E6/uL
HEMATOCRIT [1]: 34.43% and 36.57%
HEMOGLOBIN [1]: 13.38 G/DL and 14.22 G/DL
LEUKOCYTE COUNT [1]: 17.57 x10E3/uL and 13.4 x10E3/uL
LYMPHOCYTE [1]: 90.33% and 91.67%
MEAN CORPUSCULAR HEMOGLOBIN [1]: 24.6 pg and 24.67 pg
MEAN CORPUSCULAR HEMOGLOBIN CONCENTRATION [1]: 38.88 G/DL and 38.85 G/DL
MEAN CORPUSCULAR VOLUME [1]: 63.27 fL and 63.52 fL
MONOCYTE [1]: 0.83% and 1.17%
NEUTROPHIL [1]: 8.5% and 7.17%
PLATELET COUNT [1]: 1298 x10E3/uL and 1250.83 x10E3/uL
ALANINE AMINOTRANSFERASE [1]: 47.67 u/L and 49.17 u/L
ALBUMIN [1]: 4.18 G/DL and 4.33 G/DL
ALKALINE PHOSPHATASE [1]: 398.5 u/L and 378.5 u/L
ASPARTATE AMINOTRANSFERASE [1]: 93.17 u/L and 82.17 u/L
BLOOD UREA NITROGEN [1]: 16 mg/dL and 15 mg/dL
CARBON DIOXIDE [1]: 29.17 mmol/L and 34.33 mmol/L
CHLORIDE [1]: 98.17 MEQ/L and 99.17 MEQ/L
CHOLESTEROL [1]: 68.83 mg/dL and 71.17 mg/dL
CREATINE PHOSPHOKINASE [1]: 467.33 u/L and 258.67 u/L
CREATININE [1]: 0.14 mg/dL and 0.18 mg/dL
GLUCOSE [1]: 151.67 mg/dL and 142.67 mg/dL
LIPASE [1]: 9.33 u/L and 9 u/L
PHOSPHORUS [1]: 11.97 mg/dL and 11.67 mg/dL
POTASSIUM [1]: 6.43 MEQ/L and 7.13 MEQ/L
SODIUM [1]: 140.68 MEQ/L and 142.22 MEQ/L
TOTAL BILIRUBIN [1]: 0.18 mg/dL
TOTAL PROTEIN [1]: 5.82 G/DL and 5.77 G/DL
URIC ACID [1]: 1.48 mg/dL and 1.55 mg/dL
ABSOLUTE BASOPHIL [2]: 0 CELLS/uL
ABSOLUTE EOSINOPHIL [2]: 31 CELLS/uL and 23.33 CELLS/uL
ABSOLUTE LYMPHOCYTE [2]: 14327.83 CELLS/uL and 14943.67 CELLS/uL
ABSOLUTE SEGMENTED NEUTROPHIL [2]: 1321.67 CELLS/uL and 1084.33 CELLS/uL
BASOPHIL [2]: 0%
EOSINOPHIL [2]: 0.17%
ERYTHROCYTE COUNT [2]: 5.79 x10E6/uL and 5.71 x10E6/uL
HEMATOCRIT [2]: 36.1% and 35.28%
HEMOGLOBIN [2]: 14.15 G/DL and 14.27 G/DL
LEUKOCYTE COUNT [2]: 15.78 x10E3/uL and 16.08 x10E3/uL
LYMPHOCYTE [2]: 90.5% and 93%
MEAN CORPUSCULAR HEMOGLOBIN [2]: 24.48 pg and 25.02 pg
MEAN CORPUSCULAR HEMOGLOBIN CONCENTRATION [2]: 39.22 G/DL and 40.43 G/DL
MEAN CORPUSCULAR VOLUME [2]: 62.4 fL and 61.82 fL
MONOCYTE [2]: 0.67% and 0.17%
NEUTROPHIL [2]: 8.67% and 6.67%
NUCLEATED RED BLOOD CELLS [2]: 0.17 /100WBC and 0.33 /100WBC
PLATELET COUNT [2]: 1211.67 x10E3/uL and 1274 x10E3/uL
ALANINE AMINOTRANSFERASE [2]: 49 u/L and 54.17 u/L
ALBUMIN [2]: 4.27 G/DL and 4.22 G/DL
ALKALINE PHOSPHATASE [2]: 356.67 u/L and 373.17 u/L
ASPARTATE AMINOTRANSFERASE [2]: 90.17 u/L and 81.83 u/L
BLOOD UREA NITROGEN [2]: 20.5 mg/dL and 16.67 mg/dL
CARBON DIOXIDE [2]: 29.17 mmol/L and 30.33 mmol/L
CHLORIDE [2]: 98 MEQ/L and 99 MEQ/L
CHOLESTEROL [2]: 69.83 mg/dL and 71 mg/dL
CREATINE PHOSPHOKINASE [2]: 312 u/L and 273.5 u/L
CREATININE [2]: 0.21 mg/dL and 0.22 mg/dL
GLUCOSE [2]: 149.83 mg/dL and 141.83 mg/dL
LACTATE DEHYDROGENASE [2]: 322 u/L and 153.67 u/L
LIPASE [2]: 10 u/L and 10.33 u/L
PHOSPHORUS [2]: 12 mg/dL and 11.38 mg/dL
POTASSIUM [2]: 6.75 MEQ/L and 7.08 MEQ/L
SODIUM [2]: 142.8 MEQ/L and 142.75 MEQ/L
TOTAL BILIRUBIN [2]: 0.17 mg/dL and 0.18 mg/dL
TOTAL PROTEIN [2]: 6.1 G/DL
URIC ACID [2]: 1.68 mg/dL and 1.67 mg/dL
ABSOLUTE BASOPHIL [3]: 0 CELLS/uL
ABSOLUTE EOSINOPHIL [3]: 71.33 CELLS/uL
ABSOLUTE LYMPHOCYTE [3]: 10973.33 CELLS/uL
ABSOLUTE MONOCYTE [3]: 201 CELLS/uL
ABSOLUTE SEGMENTED NEUTROPHIL [3]: 1221 CELLS/uL
BASOPHIL [3]: 0%
EOSINOPHIL [3]: 0.67%
ERYTHROCYTE COUNT [3]: 5.6 x10E6/uL
HEMATOCRIT [3]: 35.33%
HEMOGLOBIN [3]: 13.47 G/DL
LEUKOCYTE COUNT [3]: 12.47 x10E3/uL
LYMPHOCYTE [3]: 87.67%
MEAN CORPUSCULAR HEMOGLOBIN [3]: 24.1 pg
MEAN CORPUSCULAR HEMOGLOBIN CONCENTRATION [3]: 38.13 G/DL
MEAN CORPUSCULAR VOLUME [3]: 63.17 fL
MONOCYTE [3]: 1.67%
NEUTROPHIL [3]: 10%
NUCLEATED RED BLOOD CELLS [3]: 0 /100WBC
PLATELET COUNT [3]: 1277.67 x10E3/uL
ALANINE AMINOTRANSFERASE [3]: 46.67 u/L
ALBUMIN [3]: 4.13 G/DL
ALKALINE PHOSPHATASE [3]: 368.33 u/L
ASPARTATE AMINOTRANSFERASE [3]: 76.33 u/L
BLOOD UREA NITROGEN [3]: 17 mg/dL
CARBON DIOXIDE [3]: 29.67 mmol/L
CHLORIDE [3]: 98.33 MEQ/L
CHOLESTEROL [3]: 76.33 mg/dL
CREATINE PHOSPHOKINASE [3]: 222.67 u/L
CREATININE [3]: 0.18 mg/dL
GLUCOSE [3]: 154.33 mg/dL
LACTATE DEHYDROGENASE [3]: 192 u/L
LIPASE [3]: 9.67 u/L
PHOSPHORUS [3]: 12.47 mg/dL
POTASSIUM [3]: 6.58 MEQ/L
SODIUM [3]: 142 MEQ/L
TOTAL BILIRUBIN [3]: 0.2 mg/dL
TOTAL PROTEIN [3]: 5.83 G/DL
URIC ACID [3]: 1.5 mg/dL
ABSOLUTE BASOPHIL [4]: 0 CELLS/uL
ABSOLUTE EOSINOPHIL [4]: 0 CELLS/uL
